Reference: patent publication US12022844B2, “Nutritional composition, food/drink composition using nutritional composition, and modified milk powder using nutritional composition” (priority 2018, dated 2024)

How the values were obtained:
[1] = tested on: Bifidobacterium peseudocatenulatum ATCC27919; assay: Mix-culturing with Bifidobacterium bifidum by HMO as sugar source, quantitative PCR; type: cell-based, Bifidobacterium pseudocatenulatum; conditions: ATCC 27919^T mix-cultured with Bifidobacterium bifidum (NITE BP-02429), sugar source 2%, Table 8
Description: (§1) A10% solution of glucose (manufactured by Nakarai Tesque Inc.), and 2′-FL ((≥95%) Funakoshi, available from sigma), and LNnT (manufactured by ELICITYL) as examples of HMOs was prepared with ion exchanged water, and was subjected to sterile filtration using Millex-GV (SLGV033RS).
(§2) Lactobacilli MRS Broth (BD) (0.05% L-Cysteine Hydrochloride for Bacteria of the genus Bifidobacterium) was added to strains of Table 1 below (bacteria belonging to Bifidobacterium bifidum) and Table 2 below. After a sterilization treatment, 3% of the bacterial solution was inoculated, and anaerobically cultured (pre-pre cultured) at 37° C. for 16 h. […]
(§3) OD650 was measured from each well in the plates in the above (4) and the above (5) before (0 h) culturing and after (8 h) culturing, by MICROPLATE READER SH-9000 (manufactured by CORONA ELECTRIC). […] After the DNA extraction, the number of proliferating bacteria of Bifidobacteria/lactobacilli was analyzed by using the bacterial species-specific primer noted in Table 4, by a quantitative PCR method (see “Structural analysis of intestinal flora”—analysis of bacterial flora in human feces using quantitative PCR—by Kouichi Watanabe, Enterobacteriological journal, 20:35-42, 2006). […]

[2] = tested on: Bifidobacterium animalis subsp lactis MCC-525; assay: Single bacterial culturing with HMO as sugar source, OD650; type: cell-based; conditions: sugar source 2%, 8 h, Table 7
Description: as §1
(§4) Lactobacilli MRS Broth (BD) (0.05% L-Cysteine Hydrochloride for Bacteria of the genus Bifidobacterium) was added to strains of Table 1 below (bacteria belonging to Bifidobacterium bifidum) and Table 2 below. After a sterilization treatment, 3% of the bacterial solution was inoculated, and anaerobically cultured (pre-pre cultured) at 37° C. for 16 h.
(§5) The following day, 1% glucose was added to a modified BL agar medium (“Studies on Bifidobacteria” by Tomotari Mitsuoka, p. 306, Japan Bifidus Foundation, issued in 1994) noted in Table 3, for preparation. After a sterilization treatment, 3% of the pre-pre cultured bacterial solution was inoculated, and anaerobically pre-cultured (pre-cultured) at 37° C. for 12 h.
(§6) The pre-cultured bacterial solution was collected and washed once with a sterile physiological saline solution. Then, mass-up was performed to an equal volume with the modified BL agar medium (“Studies on Bifidobacteria” by Tomotari Mitsuoka, p. 306, Japan Bifidus Foundation, issued in 1994) noted in Table 3 to prepare a suspended bacterial solution.
(§7) The modified BL agar medium (“Studies on Bifidobacteria” by Tomotari Mitsuoka, p. 306, Japan Bifidus Foundation, issued in 1994) noted in Table 3 was prepared at a capacity of 60%, and was subjected to an autoclave sterilization treatment. Then, 40% of each sugar solution prepared in (1) was aseptically added so as to prepare a medium with a sugar concentration of 4%.
(§8) The medium prepared in the above (3) was dispensed at a capacity that is half the capacity for culturing in a 96-well plate, and the bacterial solution prepared in the above (2) was dispensed at a remaining half capacity such that the bacterial solution had 6%. Then, a final sugar concentration was set to 2%. The plate into which the bacterial solution was dispensed was anaerobically cultured at 37° C. for 8 h.
(§9) OD650 was measured from each well in the plates in the above (4) and the above (5) before (0 h) culturing and after (8 h) culturing, by MICROPLATE READER SH-9000 (manufactured by CORONA ELECTRIC). After turbidity measurement, microbial cells were collected, and DNA extraction was performed. After the DNA extraction, the number of proliferating bacteria of Bifidobacteria/lactobacilli was analyzed by using the bacterial species-specific primer noted in Table 4, by a quantitative PCR method (see “Structural analysis of intestinal flora”—analysis of bacterial flora in human feces using quantitative PCR—by Kouichi Watanabe, Enterobacteriological journal, 20:35-42, 2006).
(§10) Regarding strains in Table 2, each strain was cultured as a single bacterium by 2′-FL or LNnT (HMOs) as a sugar source, and OD650 was measured. The results for 2′-FL are noted in Table 6 below, and the results for LNnT are noted in Table 7 below.

[3] = tested on: Lactobacillus paracasei ATCC25302; assay: as above; type: cell-based; conditions: ATCC 25302^T, sugar source 2%, 8 h
Description: as §1, §4, §5, §6, §7, §8, §9, §10

[4] = tested on: Bifidobacterium longum subsp longum BB536; assay: as above; type: cell-based; conditions: sugar source 2%, 8 h, Table 7
Description: as §1, §4, §5, §6, §7, §8, §9, §10

[5] = tested on: Lactobacillus acidophhilus ATCC4356; assay: Mix-culturing with Bifidobacterium bifidum by HMO as sugar source, quantitative PCR; type: cell-based, Lactobacillus acidophilus; conditions: ATCC 4356^T mix-cultured with Bifidobacterium bifidum (NITE BP-02429), sugar source 2%, Table 8
Description: as §1, §2, §3

[6] = tested on: Bifidobacterium longum subsp longum ATCC15707; assay: Single bacterial culturing with HMO as sugar source, OD650; type: cell-based; conditions: ATCC 15707^T, sugar source 2%, 8 h, Table 6
Description: as §1, §4, §5, §6, §7, §8, §9, §10

[7] = tested on: Lactobacillus rhamnosus ATCC7469; assay: as above; type: cell-based; conditions: ATCC 7469^T, sugar source 2%, 8 h, Table 6
Description: as §1, §4, §5, §6, §7, §8, §9, §10

[8] = tested on: Bifidobacterium longum subsp infantis ATCC15697; assay: as above; type: cell-based; conditions: ATCC 156971, sugar source 2%, 8 h, Table 6
Description: as §1, §4, §5, §6, §7, §8, §9, §10

[9] = tested on: Bifidobacterium animalis subsp lactis DSM10140; assay: as above; type: cell-based; conditions: DSM 101407, sugar source 2%, 8 h, Table 6
Description: as §1, §4, §5, §6, §7, §8, §9, §10

[10] = tested on: Bifidobacterium pseudolongum ATCC25526; assay: as above; type: cell-based; conditions: ATCC 25526^T, sugar source 2%, 8 h, Table 6
Description: as §1, §4, §5, §6, §7, §8, §9, §10

[11] = tested on: Bifidobacterium adolescentis ATCC15703; assay: as above; type: cell-based; conditions: ATCC 15703^T, sugar source 2%, 8 h, Table 6
Description: as §1, §4, §5, §6, §7, §8, §9, §10

[12] = tested on: Lactobacillus plantarum ATCC14917; assay: as above; type: cell-based; conditions: ATCC 14917^T, sugar source 2%, 8 h, Table 6
Description: as §1, §4, §5, §6, §7, §8, §9, §10

[13] = tested on: Bifidobacterium breve ATCC15700; assay: as above; type: cell-based; conditions: sugar source 2%, 8 h, Table 6
Description: as §1, §4, §5, §6, §7, §8, §9, §10

[14] = tested on: Bifidobacterium peseudocatenulatum ATCC27919; assay: as above; type: cell-based, Bifidobacterium pseudocatenulatum; conditions: ATCC 27919^T, sugar source 2%, 8 h, Table 6
Description: as §1, §2
OD650 was measured from each well in the plates in the above (4) and the above (5) before (0 h) culturing and after (8 h) culturing, by MICROPLATE READER SH-9000 (manufactured by CORONA ELECTRIC). […] After the DNA extraction, the number of proliferating bacteria of Bifidobacteria/lactobacilli was analyzed by using the bacterial species-specific primer noted in Table 4, by a quantitative PCR method (see “Structural analysis of intestinal flora”—analysis of bacterial flora in human feces using quantitative PCR—by Kouichi Watanabe, Enterobacteriological journal, 20:35-42, 2006).
Regarding strains in Table 2, each strain was cultured as a single bacterium by 2′-FL or LNnT (HMOs) as a sugar source, and OD650 was measured. […]

| Compound | Proliferation rate (number of bacteria after mix-culturing for 8 h/number of bacteria after single bacterial culturing) [1] | OD650 increase value [2] | OD650 increase value ([3]; Table 7) | OD650 increase value [4] | Proliferation rate (number of bacteria after mix-culturing for 8 h/number of bacteria after single bacterial culturing) [5] | OD650 increase value [6] | OD650 increase value [7] | OD650 increase value ([3]; Table 6) | OD650 increase value [8] | OD650 increase value [9] | OD650 increase value [10] | OD650 increase value [11] | OD650 increase value [12] | OD650 increase value [13] | OD650 increase value [14] |
| --- | --- | --- | --- | --- | --- | --- | --- | --- | --- | --- | --- | --- | --- | --- | --- |
| CC(=O)N[C@H]1[C@H](O[C@H]2[C@@H](O)[C@@H](CO)O[C@@H](O[C@H]3[C@H](O)[C@@H](O)C(O)O[C@@H]3CO)[C@@H]2O)O[C@H](CO)[C@@H](O[C@@H]2O[C@H](CO)[C@H](O)[C@H](O)[C@H]2O)[C@@H]1O (mixture of isomers) [LNnT, lacto-N-neotetraose] | 1.55 | 0.096 | 0.052 | 0.053 | 3.77 |  |  |  |  |  |  |  |  |  |  |
| 2′-fucosyllactose [2′-FL] | 3.08 |  |  |  | 3.54 | 0.029 | 0.058 | −0.011 | 0.344 | 0.027 | 0.022 | −0.01 | 0.013 | 0.041 | 0.02 |
